# US6506799B1, “Methods of treating cardiovascular diseases, dyslipidemia, dyslipoproteinemia, and hypertension with ether compounds” (Esperion Therapeutics, Inc., priority 1999, dated 2003)
# Assays:
# Assay type in all cases: in vivo, rat
# [1] = system: chow fed male Sprague-Dawley rats; assay: Serum lipids, apolipoproteins and weight gain in chow fed male Sprague-Dawley rats after seven days of treatment
# Protocol: Illustrative compounds of the invention were administered daily at a dose of 100 mg/kg to chow fed male Sprague-Dawley rats for seven days in the morning by oral gavage in 1.5% carboxymethylcellulose/0.2% Tween-20 (dosing vehicle). Animals were weighed daily. Animals were allowed free access to rodent chow and water throughout the study. After the seventh dose, animals were sacrificed in the evening and blood serum was assayed for lipoprotein cholesterol profiles, serum triglycerides, total cholesterol VLDL, LDL, and HDL cholesterol, and the ratio of HDL cholesterol to that of VLDL plus LDL cholesterol, apolipoproteins A-I, C-II, C-III, and E by immunoelectrophoresis, and percent weight gain.
# The five compounds were tested in two separate experiments. In each experiment, the experimental data were normalized against a control group of rats which received the dosing vehicle alone.
# [2] = system: chow fed obese female Zucker rats; assay: Experiments B, C, D, E: serum lipids, glucose, insulin, body and liver weight in obese female Zucker rats, 14 days; details: for Body Weight Gain (% of Pretreatment) / HDL-Cholesterol (% of Pretreatment) / Non HDL-Cholesterol (% of Pretreatment) / Triglycerides (% of Pretreatment): 14 days
# Protocol: In a number of different experiments, illustrative compounds of the invention and troglitazone were administered daily at various doses to 10-week old chow fed obese female Zucker rats for 14 days in the morning by oral gavage in 1.5% carboxymethylcellulose/0.2% Tween-20 (dosing vehicle). Animals were weighed daily. Animals were allowed free access to rodent chow and water throughout the study. Blood glucose was determined after a 6-hour fast in the afternoon without anesthesia from a tail vein. Serum was also prepared from a blood sample subsequently obtained from the orbital venous plexus (with O2/CO2 anesthesia) prior to and after one week treatment and used lipid and insulin determinations. At two weeks, blood glucose was again determined after a 6-hour fast without anesthesia from a tail vein. Soon thereafter, animals were sacrificed by CO2 inhalation in the evening and cardiac blood serum was collected and assessed for various lipids and insulin. Body weight was determined daily prior to dosing and at the time of euthanasia.
# [3] = system: female obese Zucker rats; assay: Experiment A: serum lipids, glucose, non-esterified fatty acids and weight gain in obese female Zucker rats after seven days; details: 86 mg/kg
# Protocol: Dosing vehicle, Compound A (86 mg/kg of body weight) or troglitazone (120 mg/kg of body weight) was administered to eight week old female obese Zucker rats daily for seven days in the morning by oral gavage in 1.5% carboxymethylcellulose/0.2% Tween-20. Troglitazone was obtained commercially. Finely crushed tablets were suspended in vehicle for dosing. Orbital blood samples were obtained following a six-hour fast prior to the initial dose and also following the seventh dose.
# Blood serum was assayed for total cholesterol and triglycerides (FIG. 5), lipoprotein cholesterol profiles (FIG. 6), VLDL plus LDL cholesterol combined (also referred to as apo B containing lipoprotein cholesterol or non-HDL cholesterol), HDL cholesterol, and the ratio of HDL cholesterol to that of VLDL plus LDL cholesterol (FIG. 7), serum glucose, and non-esterified fatty acids (FIG. 8), and percent weight gain (FIG. 9). […] In particular, Compound A caused a marked elevation in HDL cholesterol after one week of treatment. Using the serum total cholesterol values (FIG. 5A) and the lipoprotein cholesterol distribution (FIG. 6), the amount of cholesterol associated with non-HDL (i.e., VLDL plus LDL) and HDL were determined (FIG. 7). […] In contrast, troglitazone reduced non-HDL and HDL cholesterol by 67% and 4%, respectively.
# [4] = 100 mg/kg, 7 days, compared to control, FIG. 3
# [5] = 100 mg/kg, 7 days, vs vehicle, FIG. 2
# [6] = 100 mg/kg/day oral gavage, 7 days, normalized against vehicle control
# [7] = Experiment C, 100 mg/kg, after two weeks of treatment
smiles,measurement,setting,value
"CC(C)(CO)CCCCOCCCCC(C)(C)CO [Compound A, 6-(6-hydroxy-5,5-dimethylhexyloxy)-2,2-dimethyl-hexan-1-ol]",elevation of apolipoprotein A-I,[1]; [4],16%
same,elevation of apolipoprotein E,[1]; [4],46%
same,reduction of apolipoprotein C-II,[1]; [4],20%
same,reduction of apolipoprotein C-III,[1]; [4],16%
same,ratio of HDL to non-HDL cholesterol (VLDL plus LDL),"[1]; 100 mg/kg, 7 days, control 2.6±0.2",6.2±1.0
same,improvement in the ratio of HDL to non-HDL cholesterol,"[1]; 100 mg/kg, 7 days, vs control",2.44 fold
same,change in VLDL cholesterol,"[1]; 100 mg/kg, 7 days, vs vehicle",no change
same,elevation in HDL cholesterol,"[1]; 100 mg/kg, 7 days, vs vehicle",49%
same,reduction in LDL cholesterol,"[1]; 100 mg/kg, 7 days, vs vehicle",41%
same,elevation of total serum cholesterol,[1]; [5],26%
same,reduction of serum triglycerides,[1]; [5],31%
same,percentage body weight gain,"[1]; 100 mg/kg, after seven days, control 68.3±1.2%",63.4±1.9%
same,HDL-Cholesterol (% change),[1]; [6],+21.1 % change
same,LDL-Cholesterol (% change),[1]; [6],−27.7 % change
same,Triglyceride (% change),[1]; [6],+7.6 % change
same,Body Weight Gain (% of Pretreatment),"[2]; Experiment C, 1 mg/kg/day",+16.7 % of Pretreatment
same,HDL-Cholesterol (% of Pretreatment),"[2]; Experiment C, 1 mg/kg/day",−24.1 % of Pretreatment
same,Non HDL-Cholesterol (% of Pretreatment),"[2]; Experiment C, 1 mg/kg/day",−25.6 % of Pretreatment
same,Triglycerides (% of Pretreatment),"[2]; Experiment C, 1 mg/kg/day",−8.8 % of Pretreatment
same,Body Weight Gain (% of Pretreatment),"[2]; Experiment C, 3 mg/kg/day",+17.5 % of Pretreatment
same,HDL-Cholesterol (% of Pretreatment),"[2]; Experiment C, 3 mg/kg/day",−3.7 % of Pretreatment
same,Non HDL-Cholesterol (% of Pretreatment),"[2]; Experiment C, 3 mg/kg/day",−29.6 % of Pretreatment
same,Triglycerides (% of Pretreatment),"[2]; Experiment C, 3 mg/kg/day",−24.6 % of Pretreatment
same,Body Weight Gain (% of Pretreatment),"[2]; Experiment C, 10 mg/kg/day",+10.7 % of Pretreatment
same,HDL-Cholesterol (% of Pretreatment),"[2]; Experiment C, 10 mg/kg/day",+154.4 % of Pretreatment
same,Non HDL-Cholesterol (% of Pretreatment),"[2]; Experiment C, 10 mg/kg/day",−14.2 % of Pretreatment
same,Triglycerides (% of Pretreatment),"[2]; Experiment C, 10 mg/kg/day",−50.9 % of Pretreatment
same,Body Weight Gain (% of Pretreatment),"[2]; Experiment C, 30 mg/kg/day",+11.3 % of Pretreatment
same,HDL-Cholesterol (% of Pretreatment),"[2]; Experiment C, 30 mg/kg/day",+369.7 % of Pretreatment
same,Non HDL-Cholesterol (% of Pretreatment),"[2]; Experiment C, 30 mg/kg/day",+38.4 % of Pretreatment
same,Triglycerides (% of Pretreatment),"[2]; Experiment C, 30 mg/kg/day",−42.0 % of Pretreatment
same,glucose to insulin ratio,"[2]; Experiment C, 100 mg/kg",reduced
same,Body Weight Gain (% of Pretreatment),"[2]; Experiment C, 100 mg/kg/day",+9.2 % of Pretreatment
same,HDL-Cholesterol (% of Pretreatment),"[2]; Experiment C, 100 mg/kg/day",+801.8 % of Pretreatment
same,Non HDL-Cholesterol (% of Pretreatment),"[2]; Experiment C, 100 mg/kg/day",+45.1 % of Pretreatment
same,Triglycerides (% of Pretreatment),"[2]; Experiment C, 100 mg/kg/day",−57.0 % of Pretreatment
same,HDL-cholesterol increase,[2]; [7],802%
same,elevation of HDL-cholesterol,[2]; [7],9 fold
same,blood glucose,"[2]; Experiment C, 100 mg/kg, fasted",tendency to lower blood glucose
same,glucose to insulin ratio,"[2]; Experiment C, 1 and 3 mg/kg, two weeks",declined by approximately ⅓ to ½
same,weight gain,"[2]; Experiment C, 10, 30 and 100 mg/kg, after one and two weeks",markedly reduced
same,glucose to insulin ratio,"[2]; Experiment C, 10 and 30 mg/kg",sustained at pretreatment levels
same,minimal effective dose for reduction in serum triglycerides,"[2]; Experiment C, FIG. 10",approximately 3 mg/kg
same,dose at which elevation of serum total cholesterol begins,"[2]; Experiment C, FIG. 11",approximately 10 mg/kg/day
same,percent liver to body weight,"[2]; Experiment C, after two weeks of treatment, FIG. 16",increased in a dose dependent manner
same,serum triglyceride levels,"[2]; Experiment C, doses 1-100 mg/kg, FIG. 10",reduced serum triglyceride levels at all doses
same,rise in serum insulin,"[2]; Experiment C, higher doses (10, 30, 100 mg/kg)",largely curtailed or minimized
same,Body Weight Gain (% of Pretreatment),"[2]; Experiment D, 10 mg/kg/day",+2.2 % of Pretreatment
same,HDL-Cholesterol (% of Pretreatment),"[2]; Experiment D, 10 mg/kg/day",+133.9 % of Pretreatment
same,Non HDL-Cholesterol (% of Pretreatment),"[2]; Experiment D, 10 mg/kg/day",+49.3 % of Pretreatment
same,Triglycerides (% of Pretreatment),"[2]; Experiment D, 10 mg/kg/day",−11.1 % of Pretreatment
same,Body Weight Gain (% of Pretreatment),"[2]; Experiment D, 100 mg/kg/day",+4.5 % of Pretreatment
same,HDL-Cholesterol (% of Pretreatment),"[2]; Experiment D, 100 mg/kg/day",+187.9 % of Pretreatment
same,Non HDL-Cholesterol (% of Pretreatment),"[2]; Experiment D, 100 mg/kg/day",+7.5 % of Pretreatment
same,Triglycerides (% of Pretreatment),"[2]; Experiment D, 100 mg/kg/day",−62.9 % of Pretreatment
same,Body Weight Gain (% of Pretreatment),"[2]; Experiment E, 100 mg/kg/day",+19.1 % of Pretreatment
same,HDL-Cholesterol (% of Pretreatment),"[2]; Experiment E, 100 mg/kg/day",+232.1 % of Pretreatment
same,Non HDL-Cholesterol (% of Pretreatment),"[2]; Experiment E, 100 mg/kg/day",+7.2 % of Pretreatment
same,Triglycerides (% of Pretreatment),"[2]; Experiment E, 100 mg/kg/day",−43.2 % of Pretreatment
same,change of non-HDL cholesterol (VLDL plus LDL),[3]; one week,+10.3%
same,increase of HDL cholesterol,[3]; one week,3.9 fold
same,reduction of non-esterified fatty acids,[3]; one week,52%
same,reduction of serum triglycerides,[3]; one week,68%
same,serum glucose,[3]; one week,did not induce a hypoglycemic state
same,ratio of HDL/non-HDL cholesterol,"[3]; one week treatment, pre-treatment 4.2",14.9
same,increase of the ratio of HDL/non-HDL cholesterol,"[3]; one week, vs pre-treatment",3.6 fold
same,increase of total serum cholesterol,"[3]; one week, vs pre-treatment",3.3 fold
same,increase in body weight,"[3]; seven days, vehicle 6.6%",5.4%
